Key:
Format in all cases: cell-based
LPAR1 [1] = biological target: T1, LPAR1 (Homo sapiens, UniProt Q92633); test: LPAR1 Arrestin Assay (arrestin reporter assay); conditions: U2OS cells stably expressing the LPAR1 receptor, 200 nM 18:1 LPA (EC80); for Emax: read-out: Maximum Inhibition
T1 construct: host or cells: U2OS
Method: One day prior to the experiment, frozen U2OS cells stably expressing the LPAR1 receptor (Life Technologies, Grand Island, N.Y., #K1519A) were thawed, centrifuged at 1,000 rpm for 5 minutes to remove DMSO, and resuspended in FreeStyle™ media (Gibco, Grand Island, N.Y.). Forty microliters of cells were plated into PDL-coated 384-well plates (Greiner Bio-One, Monroe, N.C.) at 10,000 cells/well, and then the plates were incubated overnight in humidified 5% CO2 at 37° C. Test compounds were dissolved in DMSO, and 12-point, 1:3 dilution CRCs were prepared in duplicate; daughter plates were prepared by aliquoting 0.8 μL/well of test compound dilutions into 384-well plates. On the day of the assay, the daughter plates were diluted to 6× stocks using HEPES-buffered HBSS, then 10 μL of 6× test compounds were added to the cells, and the plates were incubated at 37° C. for one hour. After this 1 hour incubation, 10 μL of a 6× stock of the LPAR1 agonist, 18:1 LPA (Avanti Polar Lipids, Alabaster, Ala.), was prepared in HEPES-buffered HBSS+0.1% fatty acid-free BSA (Sigma, St. Louis, Mo.). The 6×LPA was added to all wells for a final concentration of 200 nM, which corresponds to the 18:1 LPA EC80 in this arrestin assay. The final DMSO concentration in the assay plate was 0.1%, and the final BSA concentration was 0.02%. After addition of LPA to all wells, the assay plates were incubated in humidified 5% CO2 at 37° C. for five hours. During the incubation period, 6× dye from the LiveBLAzer™-FRET B/G with CCF4-AM kit (Life Technologies, Grand Island, N.Y.) was prepared according to manufacturers' instructions. At the end of the 5 hour compound incubation, 10 μL of 6× dye was added to each well, and the assay plate was incubated for two hours in the dark at room temperature. Throughout the assay procedure, all volume additions were performed with a Biomek® NX liquid handler (Beckman Coulter, Indianapolis, Ind.). After the 2 hour dye-load, fluorescence was measured on an EnVision® Multilabel Plate Reader (Perkin Elmer, Waltham, Mass.) with an excitation filter at 409/20 nm and emission filters at 460/40 nm and 530/30 nm. Data processing was performed as recommended by the LiveBLAzer™-FRET B/G with CCF4-AM kit manual; all test compound CRCs were performed in duplicate with n≥3.

LPAR1 [2] = biological target: T1, LPAR1; test: LPAR1 FLIPR Assay; conditions: U2OS cells stably expressing LPAR1, LPA (EC80), Calcium 6 FLIPR dye; for Emax: read-out: Maximum Inhibition
Procedure, shortened: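 Calcium flux read-out (515-575 nm, FLIPR) in LPAR1-expressing U2OS cells after LPA challenge at EC80, given 3 min after compound addition; cells carried Calcium 6 dye loaded 2 h at 37° C. Eleven-point 3-fold dilutions were fitted with a four-parameter Hill equation for IC50.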

[3] = test system: LPA-induced MCP-1 in NRK-49F cells; test: LPA-induced MCP-1 AlphaLISA assay; conditions: Rattus norvegicus, final LPA 10 μM, 7 hours; for Emax: read-out: Maximum Inhibition
Procedure, shortened: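 NRK-49F rat fibroblasts, serum-starved overnight, pretreated with compound for 30 min at 37 °C (1% DMSO final), then stimulated with 10 μM LPA final. MCP-1 in the supernatant was measured by mouse/rat CCL2 AlphaLISA. IC50 values came from four-parameter logistic fits of the ratio data.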

T1 sequence (Q92633 whole entry): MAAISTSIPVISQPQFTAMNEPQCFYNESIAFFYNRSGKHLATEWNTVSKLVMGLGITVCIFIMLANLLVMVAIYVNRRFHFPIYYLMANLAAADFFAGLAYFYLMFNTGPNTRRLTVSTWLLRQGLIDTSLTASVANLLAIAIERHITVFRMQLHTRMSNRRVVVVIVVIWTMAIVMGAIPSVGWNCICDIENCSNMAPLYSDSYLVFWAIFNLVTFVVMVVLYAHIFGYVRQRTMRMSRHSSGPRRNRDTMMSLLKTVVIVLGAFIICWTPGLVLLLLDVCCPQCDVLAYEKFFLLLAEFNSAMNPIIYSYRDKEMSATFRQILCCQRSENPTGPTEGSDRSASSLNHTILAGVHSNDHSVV

SMILES | IC50 (LPAR1 [1]) [nM] | Emax (LPAR1 [1]) [%] | IC50 (LPAR1 [2]) [nM] | Emax (LPAR1 [2]) [%] | IC50 [3] [nM] | Emax [3] [%]
COc1cc(C(=O)N(CCCc2ccccc2)CCOC(=O)NS(C)(=O)=O)cc(OC)c1C [Example 184, 2-[(3,5-dimethoxy-4-methylbenzoyl)(3-phenylpropyl)amino]ethyl (methanesulfonyl)carbamate] | 1550 | 99 | 131 | 66 | 5560 | 58
COc1cc(C(=O)N(CCCc2ccc(C)o2)CCCC(C)(O)C(=O)O)cc(OC)c1C (stereo not drawn) [Example 174, 5-{(3,5-dimethoxy-4-methylbenzoyl)[3-(5-methylfuran-2-yl)propyl]amino}-2-hydroxy-2-methylpentanoic Acid] | 991 | 118 | 33 | 73 | 5430 | 65
COc1cc(OC)cc(C(=O)N(CCCCC(=O)O)CCCc2ccccc2F)c1 [Example 134, 5-{(3,5-dimethoxybenzoyl)[3-(2-fluorophenyl)propyl]amino}pentanoic Acid] | 2240 | 125 | 74 | 77 | > 10000 | 37
COc1ccc(C2(C(=O)N(CCCCC(=O)O)CCCc3ccccc3)CC2)nc1 [Example 63, 5-{[1-(5-methoxypyridin-2-yl)cyclopropane-1-carbonyl](3-phenylpropyl)amino}pentanoic Acid] | 3070 | 118 | 80 | 87 | 5530 | 51
COc1cc(OC)c(Cl)c(C(=O)N(CCCCC(=O)O)CCCc2ccccc2)c1 [Example 39, 5-[(2-chloro-3,5-dimethoxybenzoyl)(3-phenylpropyl)amino]pentanoic Acid] | 1210 | 99 | 54 | 96 | 318 | 80

Now those with a lower IC50 (LPAR1 [1]), led by results:

IC50 (LPAR1 [1]) [nM] | Emax (LPAR1 [1]) [%] | IC50 (LPAR1 [2]) [nM] | Emax (LPAR1 [2]) [%] | IC50 [3] [nM] | SMILES | Emax [3] [%]
675 | 108 | 37 | 88 | 2500 | COc1cc(OC)cc(C(=O)N(CCCCC(=O)O)CCCc2cccc(F)c2)c1 [Example 90, 5-{(3,5-dimethoxybenzoyl)[3-(3-fluorophenyl)propyl]amino}pentanoic Acid] | 76
178 | 122 | 31 | 93 | 665 | COc1cc(C(=O)N(CCCCC(=O)O)CCCc2c(F)cccc2F)cc(OC)c1C [Example 147, 5-{[3-(2,6-difluorophenyl)propyl](3,5-dimethoxy-4-methylbenzoyl)amino}pentanoic Acid] | 86
636 | 112 | 32 | 93 | 2390 | COc1cc(OC)c(F)c(C(=O)N(CCCCC(=O)O)CCCc2ccccc2)c1 [Example 58, 5-[(2-fluoro-3,5-dimethoxybenzoyl)(3-phenylpropyl)amino]pentanoic Acid] | 78
11 | 103 | 33 | 100 | 78 | COc1cc(C(=O)N(CCCc2ccccc2)CCC[C@H](C)C(=O)O)cc(OC)c1C (single isomer, unassigned) [Example 78] | 95
